Results published in ChEMBL document CHEMBL4270614, “Tuning the biological activity of cationic anthraquinone analogues specifically toward Staphylococcus aureus” (Eur J Med Chem, 2018).
Converted amounts (≈) assume the structure as drawn.

How the values were obtained:
COLO 205 = assay: Cytotoxicity against human COLO205 cells after 48 hrs by MTT assay; format: cell-based; details: COLO 205, 48 h
Staphylococcus aureus [1] = assay: Antibacterial activity against Staphylococcus aureus ATCC 25923 measured after 12 to 18 hrs; format: functional
[2] = Selectivity index, ratio of IC50 for human CCD-841-CoN cells to IC50 for human COLO205 cells; details: CCD-841-CoN cells versus COLO205 cells, read-out: Ratio IC50
[3] = Selectivity index, ratio of IC50 for human BEAS2B cells to IC50 for human A549 cells; details: BEAS2B cells versus A549 cells, read-out: Ratio IC50
Escherichia coli [4] = assay: Antibacterial activity against Escherichia coli ATCC 25922 measured after 12 to 18 hrs; format: functional
Staphylococcus aureus [5] = assay: Antibacterial activity against methicillin-resistant Staphylococcus aureus ATCC 33591 measured after 12 to 18 hrs; format: functional
A549 = assay: Cytotoxicity against human A549 cells after 48 hrs by MTT assay; format: cell-based; details: A549, 48 h
Staphylococcus aureus [6] = assay: Antibacterial activity against methicillin-resistant Staphylococcus aureus ATCC 43300 measured after 12 to 18 hrs; format: functional
CCD-841CoN = assay: Cytotoxicity against human CCD-841-CoN cells after 48 hrs by MTT assay; format: cell-based
BEAS-2B = assay: Cytotoxicity against human BEAS2B cells after 48 hrs by MTT assay; format: cell-based
Staphylococcus aureus [7] = assay: Antibacterial activity against Staphylococcus aureus ATCC 25923; format: functional
Escherichia coli [8] = assay: Antibacterial activity against Escherichia coli ATCC 25922; format: functional

| SMILES | IC50 (COLO 205) [µg/mL] | MIC (Staphylococcus aureus [1]) [µg/mL] | selectivity ratio [2] | selectivity ratio [3] | MIC (Escherichia coli [4]) [µg/mL] | MIC (Staphylococcus aureus [5]) [µg/mL] | IC50 (A549) [µg/mL] | MIC (Staphylococcus aureus [6]) [µg/mL] | IC50 (CCD-841CoN) [µg/mL] | IC50 (BEAS-2B) [µg/mL] | MIC (Staphylococcus aureus [7]) [µg/mL] | MIC (Escherichia coli [8]) [µg/mL] |
| --- | --- | --- | --- | --- | --- | --- | --- | --- | --- | --- | --- | --- |
| CC[n+]1nn(-c2ccc(OC)cc2)c2c1C(=O)c1ccccc1C2=O.O=S(=O)([O-])C(F)(F)F | 0.82 | 4 to 8 | 9.57 | 6.85 | 128 | 2 | 0.73 | 2 | 7.85 | 5 |  |  |
| CC[n+]1nn(-c2ccc(Cl)cc2)c2c1C(=O)c1ccccc1C2=O.O=S(=O)([O-])C(F)(F)F | 0.78 | 2 to 4 | 8.53 | 4.96 | > 128 | 1 | 0.85 | 2 | 6.65 | 4.22 |  |  |
| CCCC[n+]1nn(-c2ccc([N+](=O)[O-])cc2)c2c1C(=O)c1ccccc1C2=O.O=S(=O)([O-])C(F)(F)F | 43.2 | 4 | 0.99 | 1.11 |  | 2 | 44.9 | 8 to 16 | 42.8 | 49.8 |  |  |
| CCCCCCCCn1n[n+](CC)c2c1C(=O)c1ccccc1C2=O.O=S(=O)([O-])C(F)(F)F |  |  |  |  |  |  |  |  |  |  | 0.25 to 0.5 | > 128 |
| CCCCCC[n+]1nn(-c2ccc([N+](=O)[O-])cc2)c2c1C(=O)c1ccccc1C2=O.O=S(=O)([O-])C(F)(F)F | 21.2 | 2 to 4 | 1.89 | 0.79 |  | 1 | 48.9 | 128 | 40.2 | 38.6 |  |  |
| C[n+]1nn(-c2ccc(C#N)cc2)c2c1C(=O)c1ccccc1C2=O.O=S(=O)([O-])C(F)(F)F | 5.91 | 2 | 5.52 |  | > 128 | 1 | 5.2 | 2 | 32.6 | 30.1 |  |  |
| CCCCCCCC[n+]1nn(-c2ccc([N+](=O)[O-])cc2)c2c1C(=O)c1ccccc1C2=O.O=S(=O)([O-])C(F)(F)F | 8.53 | 8 | 3.63 | 4.76 |  | 16 | 15.6 | 32 | 31 | 21 |  |  |
| CCCCCCCCCC[n+]1nn(-c2ccc([N+](=O)[O-])cc2)c2c1C(=O)c1ccccc1C2=O.O=S(=O)([O-])C(F)(F)F | 7.29 | 2 to 4 | 4.2 | 1.05 |  | 8 | 7.02 | 8 to 16 | 30.6 | 7.39 |  |  |
| COc1ccc(-n2n[n+](C)c3c2C(=O)c2ccccc2C3=O)cc1.O=S(=O)([O-])C(F)(F)F | 0.7 | 1 to 2 | 8.41 | 7.44 | > 128 | 0.5 | 0.78 | 2 | 5.89 | 5.8 |  |  |
| C[n+]1nn(-c2ccc(F)cc2)c2c1C(=O)c1ccccc1C2=O.O=S(=O)([O-])C(F)(F)F | 2.86 | 1 | 2.85 | 6.44 | > 128 | 0.5 | 2.22 | 1 | 8.16 | 14.2 |  |  |
| CN[C@H](CC(C)C)C(=O)N[C@H]1C(=O)N[C@@H](CC(N)=O)C(=O)N[C@H]2C(=O)N[C@H]3C(=O)N[C@H](C(=O)N[C@H](C(=O)O)c4cc(O)cc(O)c4-c4cc3ccc4O)[C@H](O)c3ccc(c(Cl)c3)Oc3cc2cc(c3O[C@@H]2O[C@H](CO)[C@@H](O)[C@H](O)[C@H]2O[C@H]2C[C@](C)(N)[C@H](O)[C@H](C)O2)Oc2ccc(cc2Cl)[C@H]1O [VANCOMYCIN] |  |  |  |  | > 256 |  |  | 32 (≈ 22.1 µM) |  |  |  |  |
| COc1ccc(-n2n[n+](-c3ccc(OC)c(OC)c3)c3c2C(=O)c2ccccc2C3=O)cc1OC.O=S(=O)([O-])C(F)(F)F |  | 4 |  | 2.35 | > 128 | 2 | 1.6 | 4 |  | 3.76 |  |  |
| CC[n+]1nn(-c2ccc([N+](=O)[O-])cc2)c2c1C(=O)c1ccccc1C2=O.O=S(=O)([O-])C(F)(F)F | 7.72 | 8 to 16 | 6.64 | 5.89 |  | 1 to 2 | 7.4 | 4 to 8 | 51.3 | 43.6 |  |  |
| C[n+]1nn(-c2ccc([N+](=O)[O-])cc2)c2c1C(=O)c1ccccc1C2=O.O=S(=O)([O-])C(F)(F)F | 4.64 | 2 | 12 | 15.1 | > 128 | 1 | 3.5 | 2 | 55.8 | 52.9 |  |  |
| NC[C@@H]1O[C@H](O[C@H]2[C@@H](O)[C@H](O[C@@H]3[C@@H](O)[C@H](N)C[C@H](N)[C@H]3O[C@H]3O[C@H](CN)[C@@H](O)[C@H](O)[C@H]3N)O[C@@H]2CO)[C@H](N)[C@@H](O)[C@@H]1O [FRAMYCETIN] |  | 2 to 4 (≈ 3.25 to 6.51 µM) |  |  | 2 (≈ 3.25 µM) | 256 (≈ 416 µM) |  | > 256 |  |  |  |  |
